What was measured:
MOLM-13 cells = test: In vitro cell assay, CellTiter-Glo cell viability, MOLM-13; format: cell-based; settings: 20,000 MOLM-13 cells, 72 h, CTG; 5 nM Compound 5A, 1,500 nM azacitidine, single agent or combination of both
Experimental: (§1) The cells were incubated with the indicated compound at the indicated concentration as described below. The combination indices (CI) were calculated using formula […]. A and B are the percent cell inhibition by single agent treatment, and AB is the percent cell inhibition by the combination.
(§2) For each cell line, the cell viability was assessed using a CellTiter-Glo® (CTG) assay.

MV4-11 cells = test: In vitro cell assay, CellTiter-Glo cell viability, MV4-11; format: cell-based; settings: 20,000 MV4-11 cells, 72 h, CTG; 25 nM Compound 5A, 2,272 nM azacitidine, single agent or combination of both
Experimental: as §1, §2

[1] = test system: HL-60 cells (human myeloid leukemia cell line); test: In vivo efficacy, HL-60 leukemia xenograft model (azacitidine combination, FIG. 5); settings: HL-60 s.c. xenograft in mice; Compound 5A 50 mg/kg p.o. qd×19; Azacitidine 2.5 mg/kg i.p. qd 5 days on 2 days off; alone or combined
Experimental: Mice were inoculated with HL-60 cells (human myeloid leukemia cell line) subcutaneously on the right flank with the single cell suspension of 95% viable tumor cells (1×10^7) in 100 μL IMDM Matrigel mixture (1:1 ratio) without serum for the tumor development. The treatment was started when the mean tumor size reached approximately 222 mm^3, with individual tumor size ranging from 185-245 mm^3. Animals were randomly distributed into treatment groups of 10 animals each and dosed with vehicle and indicated compounds at indicated dosage and frequency shown in FIG. 5 and Table 3. In FIG. 5, the top line (indicated with circles) is Vehicle control, the second from the top line (indicated with triangles) is Azacitidine (2.5 mg/kg 5 mL/kg i.p. qd (5 days on, 2 days off,)), the second from the bottom line (indicated with circles) is Compound 5A (50 mg/kg 10 mL/kg p.o. qd×19) and the bottom line (indicated with triangles) is Compound 5A (50 mg/kg p.o. qd×19)+Azacitidine (2.5 mg/kg i.p. qd 5×3 (5 days on 2 days off)). Tumor volumes were evaluated twice per week to calculate tumor volume over time, and mice were weighed twice per week as a surrogate for signs of toxicity. Tumor growth inhibition (TGI) was calculated using the following equation TGI=(1-(Td−T0)/(Cd−C0))×100%. […]

HL-60 cells = test: In vitro cell assay, CellTiter-Glo cell viability, HL-60; format: cell-based, human; settings: 10,000 HL-60 cells, 72 h, CTG; 150 nM Compound 5A, 5,000 nM azacitidine, single agent or combination of both
Experimental: as §1, §2

RS4;11 cells = test: In vitro cell assay, CellTiter-Glo cell viability, RS4;11; format: cell-based; settings: 50,000 RS4;11 cells, 72 h, CTG; 5 nM Compound 5A, 1,500 nM azacitidine, single agent or combination of both
Experimental: as §1, §2

[2] = test system: HL-60 cells (human myeloid leukemia cell line); test: In vivo efficacy, HL-60 leukemia xenograft model (cytarabine combination, FIG. 6); settings: HL-60 s.c. xenograft in mice; Compound 5A 25 mg/kg p.o. qd×19; Cytarabine 5 mg/kg i.p. qd 5 days on 2 days off; alone or combined
Experimental: Mice were inoculated with HL-60 cells (human myeloid leukemia cell line) subcutaneously on the right flank with the single cell suspension of 95% viable tumor cells (1×10^7) in 100 μL IMDM Matrigel mixture (1:1 ratio) without serum for the tumor development. The treatment was started when the mean tumor size reached approximately 218 mm^3, with individual tumor size ranging from 185-245 mm^3. Animals were randomly distributed into treatment groups of 10 animals each and dosed with vehicle and indicated compounds at indicated dosage and frequency shown in FIG. 6 and Table 3. In FIG. 6, the top line (indicated with triangles) is Cytarabine (5.0 mg/kg), the second from the top line (indicated with circles) is Vehicle control, the second from the bottom line (indicated with diamonds) is Compound 5A (25 mg/kg) and the bottom line (indicated with circles) is Compound 5A (25 mg/kg p.o. qd×19)+Cytarabine (5 mg/kg i.p. qd 5×3 (5 days on 2 days off)). Tumor volumes were evaluated twice per week to calculate tumor volume over time, and mice were weighed twice per week as a surrogate for signs of toxicity. Tumor growth inhibition (TGI) was calculated using the following equation TGI=(1−(Td−T0)/(Cd−C0))×100%. Td and Cd are the mean tumor volumes of the treated and control animals, and TO and CO are the mean tumor volumes of the treated and control animals at the start of the experiment. […]

KMS-12-BM cells = test: In vivo efficacy, KMS-12-BM model (bortezomib combination, FIG. 7); settings: KMS-12-BM s.c. xenograft in mice; Compound 5A 50 mg/kg p.o. qd×21; Bortezomib 0.5 mg/kg i.p. BIW; alone or combined
Experimental: Mice were inoculated with KMS-12-BM cells ([…]) subcutaneously on the right flank with the single cell suspension of 95% viable tumor cells (1×10^7) in 100 μL IMDM Matrigel mixture (1:1 ratio) without serum for the tumor development. The treatment was started when the mean tumor size reached approximately 222 mm^3, with individual tumor size ranging from 185-245 mm^3. Animals were randomly distributed into treatment groups of 10 animals each and dosed with vehicle and indicated compounds at indicated dosage and frequency shown in FIG. 7 and Table 3. In FIG. 7, the top line (indicated with diamonds) is Vehicle control, the second from the top line (indicated with squares) is Compound 5A (50 mg/kg), the second from the bottom line (indicated with “x”) is Bortezomib (0.5 mg/kg) and the bottom line ([…]). Tumor volumes were evaluated twice per week to calculate tumor volume over time, and mice were weighed twice per week as a surrogate for signs of toxicity. Tumor growth inhibition (TGI) was calculated using the following equation TGI=(1−(Td−T0)/(Cd−C0))×100%. Td and Cd are the mean tumor volumes of the treated and control animals, and T0 and C0 are the mean tumor volumes of the treated and control animals at the start of the experiment. The tumor regression was defined as individual tumor volume (TV) decrease (terminal TV compared to initial TV).

[3] = test system: DOHH cells (non-Hodgkin's cell line); test: In vivo efficacy, DOHH non-Hodgkin's model (bendamustine combination, FIG. 8); settings: DOHH s.c. xenograft in mice; Compound 5A 100 mg/kg p.o. qd×13; Bendamustine 25 mg/kg i.v. qd×1; alone or combined
Experimental: Tumor volumes were evaluated twice per week to calculate tumor volume over time, and mice were weighed twice per week as a surrogate for signs of toxicity. Tumor growth inhibition (TGI) was calculated using the following equation TGI=(1−(Td−T0)/(Cd−C0))×100%. Td and Cd are the mean tumor volumes of the treated and control animals, and T0 and C0 are the mean tumor volumes of the treated and control animals at the start of the experiment. The tumor regression was defined as individual tumor volume (TV) decrease (terminal TV compared to initial TV).

Nc1ncn([C@@H]2O[C@H](CO)[C@@H](O)[C@H]2O)c(=O)n1 [Azacitidine, azacitidine]
MOLM-13 % inhibition (MOLM-13 cells): 47.0% | MV4;11 % inhibition (MV4-11 cells): 82.9% | TGI % Day 18 [1]: 11% | HL60 % inhibition (HL-60 cells): 21.6% | RS4;11 % inhibition (RS4;11 cells): 32.5%

Nc1ccn([C@@H]2O[C@H](CO)[C@@H](O)[C@@H]2O)c(=O)n1 [Cytarabine]
TGI % Day 18 [2]: −6%

CC(C)C[C@H](NC(=O)[C@H](Cc1ccccc1)NC(=O)c1cnccn1)B(O)O [Bortezomib, bortezomib]
TGI % Day 14 (KMS-12-BM cells): 46%

Cn1c(CCCC(=O)O)nc2cc(N(CCCl)CCCl)ccc21 [Bendamustine]
TGI % Day 26 [3]: 44%
